Experimental data published in patent US5043332A, “Novel 11β-substituted -19-nor-steriods” (priority 1981, dated 1991).
Like-named read-outs stand apart in the source and are kept apart here.

Tests used:
[1] = system: thymocytes of surrenalectomized rats; assay: Antiglucocorticoidal activity, incorporation of tritiated uridine in thymocytes; assay type: cell-based; conditions: for inhibition at 0.1 µM: 5 × 10^-8 M dexamethasone + test product 10^-7 M; for inhibition at 0.01 µM: 5 × 10^-8 M dexamethasone + test product 10^-8 M; for opposition to the effect of dexamethasone on tritiated uridine incorporation (in words): with 5×10^-8 M dexamethasone
Protocol: III. Antiglucocorticoidal Activity
The test used was that of Dausse et al [Molecular Pharmacology, Vol. 13 (1977), p. 948-955] entitled "The relationship between glucocorticoid structure and effects upon thymocytes" for […] thymocytes. The thymocytes of surrenalectomized rats were incubated at 37° C. for 3 hours in a nutritive medium containing 5×10^-8 M of dexamethasone in the presence or absence of the test compound at different concentrations. Tritiated uridine was added and incubation was continued for one hour. The incubates were cooled and treated with a 5% trifluoroacetic acid solution and the mixture was filtered with Whatman GF/A paper. The filter was washed 3 times with a 5% trifluoroacetic acid solution and retained radioactivity on the filter was determined.

[2] = molecular target: T1, Progestogen receptor of the uterus of rabbits (Oryctolagus cuniculus, UniProt P06186); assay: Progestogen receptor binding (displacement of tritiated product R); design: species or system rabbit; conditions: for affinity for progestogen receptors (in words): conclusion
T1 construct: The uterus was removed, weighed and homogenized at 0° C; from tissue; host or cells: rabbit uterus, 105,000 g supernatant (estradiol-primed immature rabbits)
T1 sequence (P06186 1-930): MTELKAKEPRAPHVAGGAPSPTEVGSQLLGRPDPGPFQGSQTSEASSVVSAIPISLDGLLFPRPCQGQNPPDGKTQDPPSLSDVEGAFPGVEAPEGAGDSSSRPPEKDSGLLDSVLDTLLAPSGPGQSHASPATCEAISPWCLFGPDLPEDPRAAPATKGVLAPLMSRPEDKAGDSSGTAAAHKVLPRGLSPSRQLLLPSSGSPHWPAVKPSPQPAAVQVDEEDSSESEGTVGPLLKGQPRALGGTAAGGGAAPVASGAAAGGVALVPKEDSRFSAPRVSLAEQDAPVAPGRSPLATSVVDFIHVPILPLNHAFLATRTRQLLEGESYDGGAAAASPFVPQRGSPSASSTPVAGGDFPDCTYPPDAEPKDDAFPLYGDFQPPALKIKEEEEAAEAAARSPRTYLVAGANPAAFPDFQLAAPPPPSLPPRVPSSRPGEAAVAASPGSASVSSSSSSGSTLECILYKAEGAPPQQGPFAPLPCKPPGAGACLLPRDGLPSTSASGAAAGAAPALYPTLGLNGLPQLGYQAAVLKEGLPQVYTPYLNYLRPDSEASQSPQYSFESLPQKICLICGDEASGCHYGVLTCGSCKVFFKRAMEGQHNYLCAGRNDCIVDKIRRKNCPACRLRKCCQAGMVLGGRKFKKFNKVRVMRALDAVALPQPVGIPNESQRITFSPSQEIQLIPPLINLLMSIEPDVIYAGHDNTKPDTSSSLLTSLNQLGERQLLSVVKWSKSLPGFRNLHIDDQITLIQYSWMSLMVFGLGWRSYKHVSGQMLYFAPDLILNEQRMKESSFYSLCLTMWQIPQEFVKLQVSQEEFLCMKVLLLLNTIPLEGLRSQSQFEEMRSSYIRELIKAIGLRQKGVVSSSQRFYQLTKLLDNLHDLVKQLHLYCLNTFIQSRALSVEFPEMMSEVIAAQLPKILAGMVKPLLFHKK
Protocol: C. Progestogen receptor of the uterus of rabbits
Immature rabbits weighing about 1 kg received a cutaneous application of 25 μg of estradiol and the animals were killed 5 days later. The uterus was removed, weighed and homogenized at 0° C. with a polytetrafluoroethylene-glass Potter, in a buffered TS solution [Tris 10. mM, 0.25M of saccharose, HCl-pH of 7.4] with 1 g of tissue per 50 ml of TS. […] The concentration of tied tritiated R (B) was then measured for each incubate by the technique of adsoprtion on carbon-dextran.
(§1) The calculation of the relative affinity of […] (ARL) was identical for all of the above receptor tests. One traced the following two curves: the percentage of tied tritiated hormone B/T as a function of the logarithm of the cold hormone concentration and B/T as a function of the logarithm of the concentration of the cold test product. One determined the line of the equation. [formula]
(§2) The intersection of the I50 line and the curves permits one to determine the concentrations of the cold hormone of the reference (CH) and the cold test compound (CX) which inhibit by 50% the tieing of tritiated hormone with the receptor. The relative affinity of tieing (ARL) of the test product was determined by the equation: [formula]

[3] = molecular target: T2, Estrogen receptor of uterus of mice (Mus musculus, UniProt P19785); assay: Estrogen receptor binding (displacement of tritiated estradiol)
T2 construct: the uterus were removed and homogenized at 0° C; from tissue; host or cells: mouse uterus, 105,000 g supernatant (immature females 18 to 21 days old)
T2 sequence (P19785 1-599): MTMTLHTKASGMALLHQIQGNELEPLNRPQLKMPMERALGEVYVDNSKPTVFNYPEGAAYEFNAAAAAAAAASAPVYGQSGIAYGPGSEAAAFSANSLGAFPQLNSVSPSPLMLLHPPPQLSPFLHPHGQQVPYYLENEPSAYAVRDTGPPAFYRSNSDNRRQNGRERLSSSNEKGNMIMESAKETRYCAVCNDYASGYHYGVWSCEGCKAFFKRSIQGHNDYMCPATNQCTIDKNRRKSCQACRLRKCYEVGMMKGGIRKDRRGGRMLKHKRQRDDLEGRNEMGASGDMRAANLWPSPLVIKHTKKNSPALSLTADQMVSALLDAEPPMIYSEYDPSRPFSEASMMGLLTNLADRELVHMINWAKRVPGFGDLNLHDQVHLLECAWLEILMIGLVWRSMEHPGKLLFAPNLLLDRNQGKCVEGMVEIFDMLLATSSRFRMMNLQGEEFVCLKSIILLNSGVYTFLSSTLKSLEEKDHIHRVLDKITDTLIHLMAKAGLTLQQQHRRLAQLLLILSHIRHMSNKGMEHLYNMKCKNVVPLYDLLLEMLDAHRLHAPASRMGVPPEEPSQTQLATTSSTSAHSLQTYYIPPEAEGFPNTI
Protocol: E. Estrogen receptor of uterus of mice
Immature female mice 18 to 21 days old were killed and the uterus were removed and homogenized at 0° C. with a polytetrafluoroethylene-glass Potter in a buffered TS solution consisting of 10 mM, Tris, 0125M Saccharose, HCl for a pH of 7.4 at a rate of 1 g of tissue per 25 ml of TS. The homogenate was then ultracentrigued at 105,000 g for 90 minutes at 0° C. and aliquoits of the resulting […] were incubated at 0° C. for a time (t) with a constant concentration (T) of tritiated estradiol in the presence of increasing concentrations (0 to 1000×10^-9 M) of either cold estradiol or cold test compound. The concentration of tied tritiated estradiol (B) was measured for each incubate by the technique of adsorption on carbon-dextran.
as §1, §2

[4] = Rattus norvegicus, Thymocyte, second table, read-out: % of inhibition of effect of Dexamethasone
[5] = second table, incubation 2 H at 0° C.
[6] = second table, incubation 24 H at 0° C.
[7] = Rattus norvegicus, Thymocyte, read-out: % inhibition of effect of Dexamethasone

C=C(C)C#C[C@]1(O)CC[C@H]2[C@@H]3CCC4=CC(=O)CCC4=C3[C@@H](c3ccc(N(C)C)cc3)C[C@@]21C [Example 23, 11β-[4-(N,N-dimethylamino)-phenyl]-23-methyl-19,21-dinor-17α-Δ^4,9,23-cholatriene-20-yn-17β-ol-3-one]
inhibition at 0.1 µM [1, 4]: 53% | inhibition at 0.01 µM [1, 4]: 22% | % of inhibition of effect of Dexamethasone (symbol) ([1]; second table, 5 × 10^-8 M dexamethasone + test product 10^-6 M): * (A dose of 10^-6 M inhibited totally the effect of dexamethasone) | opposition to the effect of dexamethasone on tritiated uridine incorporation (in words) [1]: opposed this effect | relative affinity of tieing (ARL), Progestogen [2, 5]: 81 | relative affinity of tieing (ARL), Progestogen [2, 6]: 268 | relative affinity of tieing (ARL), Estrogen [3, 5]: 0

CC#C[C@]1(O)CC[C@H]2[C@@H]3CCC4=CC(=O)CCC4=C3[C@@H](c3ccc(N(C)C)cc3)C[C@@]21C [Example 19, 11β-[4-(N,N-dimethylamino)-phenyl]-17α-(prop-1-ynyl)-Δ^4,9-estradiene-17β-ol-3-one]
opposition to the effect of dexamethasone on tritiated uridine incorporation (in words) [1]: opposed this effect | affinity for progestogen receptors (in words) [2]: very remarkable affinity

CC#C[C@]1(O)CC[C@H]2[C@@H]3CCC4=C(CCC(=O)C4)[C@H]3[C@@H](c3ccc(N(C)C)cc3)C[C@@]21C [Example 10, 11β-(4-dimethylaminophenyl)-17α-(prop-1-ynyl)-Δ^5(10) -estrene-17β-ol-3-one]
% inhibition of effect of Dexamethasone (symbol) ([1]; 5 × 10^-8 M dexamethasone + test product 10^-6 M): * (A dose of 10^-6 M inhibited the effect of dexamethasone totally) | inhibition at 0.1 µM [1, 7]: 23% | inhibition at 0.01 µM [1, 7]: 0% | opposition to the effect of dexamethasone on tritiated uridine incorporation (in words) [1]: opposed this effect | relative affinity of tieing (ARL), Progestogen ([2]; incubation 2 H at 0° C.): 27 | relative affinity of tieing (ARL), Progestogen ([2]; incubation 24 H at 0° C.): 62 | relative affinity of tieing (ARL), Estrogen ([3]; incubation 2 H at 0° C.): < 0,1 | relative affinity of tieing (ARL), Estrogen ([3]; incubation 5 H (25° C.)): < 0,1

CC#C[C@]1(O)CC[C@H]2[C@@H]3CCC4=CC(=O)CCC4=C3[C@@H](c3ccc([N+](C)(C)[O-])cc3)C[C@@]21C [Example 35, N-oxide of 11β-[4-(N,N-dimethylamino)-phenyl]-17α-(prop-1-ynyl)-Δ^4,9-estradiene-17β-ol-3-one]
inhibition at 1 µM ([1]; Rattus norvegicus, Thymocyte, second table, 5 × 10^-8 M dexamethasone + test product 10^-6 M, read-out: % of inhibition of effect of Dexamethasone): 50% | inhibition at 0.1 µM [1, 4]: 21% | inhibition at 0.01 µM [1, 4]: 4% | opposition to the effect of dexamethasone on tritiated uridine incorporation (in words) [1]: opposed this effect | relative affinity of tieing (ARL), Progestogen [2, 5]: 1,1 | relative affinity of tieing (ARL), Progestogen [2, 6]: 2,5 | relative affinity of tieing (ARL), Estrogen [3, 5]: 0

CN(C)c1ccc([C@H]2C[C@@]3(C)[C@@H](CC[C@@]3(O)C#C[Si](C)(C)C)[C@@H]3CCC4=CC(=O)CCC4=C32)cc1 [Example 44, 11β-[4-(N,N-dimethylamino)-phenyl]-21-trimethylsilyl-19-nor-17α-Δ^4,9-pregnadiene-20-yne-17β-ol-3-one]
relative affinity of tieing (ARL), Progestogen [2, 5]: 15,2 | relative affinity of tieing (ARL), Progestogen [2, 6]: 38 | relative affinity of tieing (ARL), Estrogen [3, 5]: 0

CC#C[C@]1(O)CC[C@H]2[C@@H]3CCC4=CC(=O)[C@H](C)CC4=C3[C@@H](c3ccc(N(C)C)cc3)C[C@@]21C [Example 5, 2α-methyl-11β-(4-dimethylaminophenyl)-17α-(prop-1-ynyl)-Δ^4,9-estradiene-17β-ol-3-one]
opposition to the effect of dexamethasone on tritiated uridine incorporation (in words) [1]: opposed this effect | affinity for progestogen receptors (in words) [2]: very remarkable affinity

C#C[C@]1(O)CC[C@H]2[C@@H]3CCC4=CC(=O)CCC4=C3[C@@H](c3ccc(N(C)C)cc3)C[C@@]21C [Example 32, 11β-[4-(N,N-dimethylamino)-phenyl]-17α-ethynyl-Δ^4,9-estradiene-17β-ol-3-one]
affinity for progestogen receptors (in words) [2]: very remarkable affinity | relative affinity of tieing (ARL), Progestogen [2, 5]: 81 | relative affinity of tieing (ARL), Progestogen [2, 6]: 351 | relative affinity of tieing (ARL), Estrogen [3, 5]: 0

C[C@]12C[C@H](c3ccc([N+](C)(C)[O-])cc3)[C@]34O[C@]35CCC(=O)C=C5CC[C@H]4[C@@H]1CC[C@@]2(O)C#CCl [Example 27, N-oxide of 11β-[4-(N,N-dimethylamino)-phenyl]-9α,10α-epoxy-21-chloro-19-nor-17α-Δ^4-pregnene-20-yne-17β-ol-3-one]
relative affinity of tieing (ARL), Progestogen [2, 5]: 0,6 | relative affinity of tieing (ARL), Progestogen [2, 6]: 0,4 | relative affinity of tieing (ARL), Estrogen [3, 5]: 0
